From patent US20240174690A1, “ANNULATED 2-AMINO-3-CYANO THIOPHENES AND DERIVATIVES FOR THE TREATMENT OF CANCER” (BOEHRINGER INGELHEIM INTERNATIONAL GMBH, priority 2021, published 2024)
Blank lines part the entries; values can stand above or below the compound they belong to.

Experiments:
KRAS (WT)::SOS1 = KRAS (WT)::SOS1 (Homo sapiens (Human), UniProt P01116, C118S); assay: KRAS::SOS1 AlphaScreen binding assay, KRAS WT
Description: (§1) This assay can be used to examine the potency with which compounds according to the invention binding to (mutated) KRAS inhibit the protein-protein interaction between SOS1 and (mutated) KRAS e.g., KRAS WT, KRAS G12C, KRAS G12D, KRAS G12V, KRAS G13D. […] Low IC50 values in this assay setting are indicative of strong inhibition of protein-protein interaction between SOS1 and KRAS:
(§2) These assays measure the inhibitory effect of compounds on KRAS mutant protein-protein interactions using the Alpha Screen technology by Perkin Elmer.
(§3) The following (mutant) enzyme forms of KRAS and interacting proteins are used in these assays at the given concentrations: • KRAS (G12D) 1-169, N-terminal 6His-tag, C-terminal avi-tag (Xtal BioStructures, Inc.); final assay concentration 10 nM and SOS1 564-1049, N-terminal 229 GST-tag, TEV cleavage site (Viva Biotech Ltd); final assay concentration 5 nM; • KRAS (G12C) 1-169, N-terminal 6His-tag for purification, cleaved off, C-terminal avi-tag, biotinylated, mutations: C51S, C80L, C118S (in house); final assay concentration 7.5 nM and SOS1 564-1049, N-terminal 229 GST-tag, TEV cleavage site (Viva Biotech Ltd); final assay concentration 5 nM; • KRAS (G12V) 1-169, N-terminal 6His-tag for purification, cleaved off, C-terminal avi-tag, biotinylated, TEV cleavage site, mutation: C118S, GDP loaded (in house); final assay concentration 10 nM and SOS1 564-1049, N-terminal 229 GST-tag, TEV cleavage site (Viva Biotech Ltd); final assay concentration 10 nM; • KRAS (G13D) 1-169, N-terminal 6His-tag for purification, cleaved off, C-terminal avi-tag, biotinylated, TEV cleavage site, mutation: C118S, GDP loaded (in house); final assay concentration 10 nM and SOS1 564-1049, N-terminal 229 GST-tag, TEV cleavage site (Viva Biotech Ltd); final assay concentration 10 nM; • KRAS (WT) 1-169, N-terminal 6His-tag for purification, cleaved off, C-terminal avi-tag, biotinylated, TEV cleavage site, mutation: C118S, GDP loaded (in house); final assay concentration 10 nM and SOS1 564-1049, N-terminal 229 GST-tag, TEV cleavage site (Viva Biotech Ltd); final assay concentration 10 nM.
(§4) Test compounds dissolved in DMSO are dispensed onto assay plates (Proxiplate 384 PLUS, white, PerkinElmer; 6008289) using an Access Labcyte Workstation with the Labcyte Echo 55×. For the chosen highest assay concentration of 100 μM, 150 nL of compound solution are transferred from a 10 mM DMSO compound stock solution. A series of eleven fivefold dilutions per compound are transferred to the assay plate, compound dilutions are tested in duplicates. DMSO are added as backfill to a total volume of 150 nL.
(§5) The assays run on a fully automated robotic system in a darkened room below 100 Lux. To 150 nl of compound dilution 10 μl of a mix including KRAS mutant protein, SOS1 (final assay concentrations see above) and GDP nucleotide (Sigma G7127; final assay concentration 10 μM) in assay buffer (1×PBS, 0.1% BSA, 0.05% Tween 20) are added into columns 1-24.
(§6) After 30 minutes incubation time 5 μl of Alpha Screen bead mix in assay buffer are added into columns 1-23. Bead mix consists of AlphaLISA Glutathione Acceptor Beads (PerkinElmer, Cat No AL109) and AlphaScreen Streptavidin Donor Beads (PerkinElmer Cat No 6760002) in assay buffer at a final assay concentration of 10 μg/ml each.
(§7) Plates are kept at room temperature in a darkened incubator. After an additional 60 minutes incubation time the signal is measured in a PerkinElmer Envision HTS Multilabel Reader using the AlphaScreen specs from PerkinElmer.
(§8) Each plate contains up to 16 wells of a negative control depending on the dilution procedure (platewise or serial) (DMSO instead of test compound; with KRAS mutant::SOS1 GDP mix and bead mix; column 23) and 16 wells of a positive control (DMSO instead of test compound; with KRAS mutant::SOS1 GDP mix w/o bead mix; column 24).
(§9) As internal control known inhibitors of KRAS mutant::SOS1 interaction can be measured on each compound plate. […]

A375 cells = assay: A375 CTG proliferation assay (120 h) (melanoma, wt, B-Raf mutant, negative control); assay type: cell-based; details: Homo sapiens, A-375, CTG 120 h
Method: A375 CTG Proliferation Assay (120 h) (Melanoma, Wt, B-Raf Mutant, Negative Control)
A375 cells (ATCC CRL-1619) are dispensed into 384-well plates, flat and clear bottom (Greiner, PNr. 781091) at a density of 300 cells per well in 60 μL DMEM (Sigma 06429)+10% Fetal Calf Serum (HyClone, PNr.: SH30084.03) and incubated at 37° C. in a CO2 incubator overnight. The next day, compounds (10 mM stock in DMSO) are added at logarithmic dose series using the HP Digital Dispenser D300 (Tecan), including DMSO controls. Plates are incubated for 120 h, and cell viability is measured using CellTiter-Glo luminescent cell viability reagent (Promega product code G7570). Viability (stated as percent of control) is defined as relative luminescence units RLU of each well divided by the RLU of cells in DMSO controls. IC50 values are determined from viability measurements by non-linear regression using a four-parameter model.

GP2D cells = assay: GP2D proliferation assay (120 h) (colorectal cancer, G12D); assay type: cell-based
Method: GP2D Proliferation Assay (120 h) (Colorectal Cancer, G12D)
GP2D cells (ATCC No. CRL-5807) are dispensed into white 384-well plates, flat and white bottom (Perkin Elmer, 6007680) at a density of 500 cells per well in 40 μl DMEM (Sigma, D6429)+1×GlutaMAX (Gibco, 35050038)+10% FCS (fetal calf serum). […] Compounds (10 mM stock in DMSO) are added at logarithmic dose series using the HP Digital Dispenser D300 (Tecan), including DMSO controls and normalizing for added DMSO. For the TO time point measurement, untreated cells are analyzed at the time of compound addition. Plates are incubated for 120 h, and cell viability is measured using CellTiter-Glo luminescent cell viability reagent (Promega product code G7570). Viability (stated as percent of control) is defined as relative luminescence units RLU of each well divided by the RLU of cells in DMSO controls. IC50 values are determined from viability measurements by non-linear regression using a four parameter model.

KRAS (G13D)::SOS1 = KRAS (G13D)::SOS1 (Homo sapiens (Human), UniProt P01116, C118S/G13D); assay: KRAS::SOS1 AlphaScreen binding assay, KRAS G13D
Description: as §1, §2, §3, §4, §5, §6, §7, §8, §9

KRAS (G12V)::SOS1 = KRAS (G12V)::SOS1 (Homo sapiens (Human), UniProt P01116, C118S/G12V); assay: KRAS::SOS1 AlphaScreen binding assay, KRAS G12V
Description: as §1, §2, §3, §4, §5, §6, §7, §8, §9

Chain of KRAS (WT)::SOS1 (P01116 other isoform, or with tags, fused parts or gaps C118S): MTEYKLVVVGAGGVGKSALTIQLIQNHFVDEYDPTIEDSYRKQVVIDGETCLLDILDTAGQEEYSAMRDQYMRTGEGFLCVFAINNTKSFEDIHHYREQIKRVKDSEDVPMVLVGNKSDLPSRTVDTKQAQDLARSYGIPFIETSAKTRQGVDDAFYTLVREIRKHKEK
Chain of KRAS (G13D)::SOS1 (P01116 other isoform, or with tags, fused parts or gaps G13D/C118S): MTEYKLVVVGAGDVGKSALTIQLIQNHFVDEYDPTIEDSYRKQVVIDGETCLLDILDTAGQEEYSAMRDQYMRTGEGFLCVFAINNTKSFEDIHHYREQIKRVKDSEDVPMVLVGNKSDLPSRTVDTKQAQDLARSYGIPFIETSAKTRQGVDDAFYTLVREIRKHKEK
Chain of KRAS (G12V)::SOS1 (P01116 other isoform, or with tags, fused parts or gaps G12V/C118S): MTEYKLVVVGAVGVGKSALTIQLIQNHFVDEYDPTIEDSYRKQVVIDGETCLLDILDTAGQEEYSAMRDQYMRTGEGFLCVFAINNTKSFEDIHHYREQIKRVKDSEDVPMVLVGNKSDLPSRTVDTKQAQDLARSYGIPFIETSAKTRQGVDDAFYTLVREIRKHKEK

Compound: CO[C@@H]1C[C@@H]([C@H](C)Oc2cc(-c3ccn(C)n3)nc(-c3noc4c3CCC[C@@]43CCCc4sc(N)c(C#N)c43)n2)N(C)C1 [II-91]
IC50 (A375 cells): 1.14 µM
IC50 (GP2D cells): 0.394 µM

Compound: CNC(=O)c1cn(-c2cc(O[C@@H](C)[C@@H]3CCCN3C)nc(-c3noc4c3CCC[C@@]43CCCc4sc(N)c(C#N)c43)n2)nn1 [II-122]
IC50 (KRAS (WT)::SOS1): 0.01 µM
IC50 (A375 cells): 0.761 µM

Compound: C[C@H](Oc1cc(-n2cc(-c3cccnc3)nn2)nc(-c2noc3c2CCC[C@@]32CCCc3sc(N)c(C#N)c32)n1)[C@@H]1CCCN1C [II-123]
IC50 (KRAS (WT)::SOS1): 0.011 µM
IC50 (A375 cells): 0.259 µM

Next, values leading:

IC50 (KRAS (WT)::SOS1): 0.002 µM
IC50 (A375 cells): 2.58 µM
IC50 (GP2D cells): 0.022 µM
Compound: C[C@H](Oc1cc(N2CCNC2=O)nc(-c2noc3c2CCC[C@@]32CCCc3sc(N)c(C#N)c32)n1)[C@@H]1CCCN1C [II-64]

IC50 (KRAS (WT)::SOS1): 0.004 µM
IC50 (A375 cells): > 3 µM
IC50 (KRAS (G13D)::SOS1): 0.008 µM
IC50 (GP2D cells): 0.037 µM
Compound: C[C@H](Oc1cc(N2CCOC3(COC3)C2)nc(-c2noc3c2CCC[C@@]32CCCc3sc(N)c(C#N)c32)n1)[C@@H]1CCCN1C [II-77]

IC50 (KRAS (WT)::SOS1): 0.003 µM
IC50 (A375 cells): > 3 µM
IC50 (KRAS (G12V)::SOS1): 0.002 µM
IC50 (KRAS (G13D)::SOS1): 0.009 µM
IC50 (GP2D cells): 0.026 µM
Compound: C[C@H](Oc1cc([C@@H]2CCOC2)nc(-c2noc3c2CCC[C@@]32CCCc3sc(N)c(C#N)c32)n1)[C@@H]1CCCN1C [II-94]
